Experimental data reported in BindingDB's records for doi:10.1021/jm00115a012 (Research Biochemicals, 1991).

Columns and labels:
D(2) dopamine receptor [1] = biological target: T1, D(2) dopamine receptor (Homo sapiens, UniProt P14416); experiment: ChEBML_59152
Excerpt: (§1) Binding affinity against dopamine receptor D2 by using [3H]spiperone as radioligand in caudate-putamen of monkey

D(1A) dopamine receptor = experiment: Binding affinity against dopamine receptor D1 by using [3H]-SCH- 23390 as radioligand in caudate-putamen of monkey
D(2) dopamine receptor [2] = biological target: T1, D(2) dopamine receptor; experiment: as §1

T1 sequence (P14416 whole entry): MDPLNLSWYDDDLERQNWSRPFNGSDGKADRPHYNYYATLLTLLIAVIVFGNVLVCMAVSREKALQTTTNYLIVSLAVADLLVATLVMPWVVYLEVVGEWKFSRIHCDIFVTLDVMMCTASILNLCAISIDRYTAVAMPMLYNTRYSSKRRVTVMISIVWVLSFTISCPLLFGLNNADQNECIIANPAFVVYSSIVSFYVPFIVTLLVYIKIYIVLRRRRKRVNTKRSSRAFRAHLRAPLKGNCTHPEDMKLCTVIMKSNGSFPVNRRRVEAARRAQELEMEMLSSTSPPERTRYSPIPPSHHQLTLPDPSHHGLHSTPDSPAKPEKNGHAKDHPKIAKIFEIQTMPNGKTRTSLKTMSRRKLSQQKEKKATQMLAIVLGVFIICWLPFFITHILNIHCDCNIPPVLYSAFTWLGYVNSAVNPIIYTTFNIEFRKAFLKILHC

Row | Structure (SMILES) | Ki (D(2) dopamine receptor [1]) [nM] | Ki (D(1A) dopamine receptor) [nM] | Ki (D(2) dopamine receptor [2]) [nM]
1 | CN1CCc2cc(Br)c(O)cc2C(c2ccc(NC(=S)Nc3ccc4c(c3)C(=O)OC43c4ccc(O)cc4Oc4cc(O)ccc43)cc2)C1 (stereo not given) | > 5000 | – | –
2 | CN1CCc2cc(Br)c(O)cc2C(c2ccc(N)cc2)C1 (stereo not given) | 1600 | – | –
3 | O=C1OC2(c3ccc(O)cc3Oc3cc(O)ccc32)c2ccc(NC(=S)Nc3ccc(C4CNCCc5cc(O)c(O)cc54)cc3)cc21 (stereo not given) | – | 10000 | –
4 | O=C(CCCN1CCC2(CC1)C(=O)N(CCc1ccc(Nc3ccc([N+](=O)[O-])c4n[o+][n-]c34)cc1)CN2c1ccccc1)c1ccc(F)cc1 | 0.66 | – | –
5 | CCCN(CCc1ccc(Nc2ccc([N+](=O)[O-])c3n[o+][n-]c23)cc1)C1CCc2c(O)cccc2C1 (stereo not given) | – | – | 0.45
6 | CN1CCc2cc(Br)c(O)cc2C(c2ccc(Nc3ccc([N+](=O)[O-])c4n[o+][n-]c34)cc2)C1 (stereo not given) | 710 | – | –
7 | CCCN(CCc1ccc(NC(=S)Nc2ccc3c(c2)C(=O)OC32c3ccc(O)cc3Oc3cc(O)ccc32)cc1)[C@H]1CCc2c(O)cccc2C1 | 4.8 | – | –
8 | CCCN(CCc1ccc(NC(=S)Nc2ccc3c(c2)C(=O)OC32c3ccc(O)cc3Oc3cc(O)ccc32)cc1)[C@@H]1CCc2c(O)cccc2C1 | – | – | 110
9 | CCCN(CCc1ccc(C)cc1)[C@@H]1CCc2c(O)cccc2C1 | – | 4900 | 170
10 | CCCN(CCc1ccc(C)cc1)[C@H]1CCc2c(O)cccc2C1 | – | 270 | 6.7
11 | CCCN(CCc1ccc(N)cc1)C1CCc2c(O)cccc2C1 (racemic) | – | 710 | 6.8
12 | CCCN(CCc1ccc(NC(=S)Nc2ccc3c(c2)C(=O)OC32c3ccc(O)cc3Oc3cc(O)ccc32)cc1)C1CCc2c(O)cccc2C1 (racemic) | 7 | – | –
